{"source": "patent US20090214507A1", "about": "“METHOD OF TREATING PREVENTING, INHIBITING OR REDUCING DAMAGE TO CARDIAC TISSUE” (RegeneRx Biopharmaceuticals, Inc., priority 2004, published 2009)", "key": {"[1]": {"tested_on": "primary rat neonatal cardiomyocytes", "test": "primary neonatal cardiomyocyte culture on laminin-coated glass", "assay_type": "cell-based", "procedure": "(§1) To test the response of post-natal cardiomyocytes, primary rat neonatal cardiomyocytes were cultured on laminin-coated glass and treated the cells with phosphate buffered saline (PBS) or thymosin β4.\nPrimary culture of neonatal cardiomyocytes typically survived for approximately one to two weeks with some cells beating up to two weeks when grown on laminin-coated slides in our laboratory. […] In addition, the rate of beating was consistently faster in thymosin β4-treated neonatal cardiomyocytes (95 vs. 50 beats per minute, p<0.02), indicating either a change in cell-cell communication or more vigorous cardiomyocytes."}, "[2]": {"tested_on": "myocardial infarction in adult mice", "test": "myocardial infarction by coronary artery ligation, echocardiography and histology", "assay_type": "in vivo, mouse", "procedure": "Because of thymosin β4's effects on survival and migration of cardiomyocytes cultured in vitro and phosphorylation of Akt, it was tested whether thymosin β4 might aid in cardiac repair in vivo after myocardial damage. Myocardial infarctions in fifty-eight adult mice were created by coronary artery ligation and treated half with systemic, intracardiac, or systemic plus intracardiac thymosin β4 immediately after ligation and the other half with PBS. Intracardiac injections were done with collagen (control) or collagen mixed with thymosin β4. All forty-five mice that survived two weeks later were interrogated for cardiac function by random-blind ultrasonography at 2 and 4 weeks after infarction by multiple measurements of cardiac contraction. […] Control cardiac injections were performed with the same collagen vehicle making it unlikely that an endogenous reaction to the injection contributed to the cardiac recovery.\nTo determine the manner in which […] improved cardiac function, multiple serial histologic sections of hearts treated with or without thymosin β4 were examined. […] TUNEL positive cells that were also myocytes were rare in the thymosin β4 group but abundant in the control hearts. […] Thus, the decreased scar volume and preserved function of thymosin β4 treated mice were likely due to early preservation of myocardium after infarction through thymosin β4's effects on survival of cardiomyocytes.\nEmbryonic or adult cardiac tissue was embedded in paraffin and sections used for immunohistochemistry. […] Adult hearts were sectioned at ten equivalent levels from the base of the heart to the apex. Serial sections were used for trichrome sections and reaction with sarcomeric a-actinin, c-kit, Sca-1, Abcg2, and BrdU antibodies and for TUNEL assay (Intergen Company #S7111).\nMyocardial infarction was produced in fifty-eight male C57BL/6J mice at 16 weeks of age (25-30 g) by ligation of the left anterior descending coronary artery as previously described. Twenty-nine of the ligated mice received thymosin β4 treatment immediately following ligation and the remaining twenty-nine received PBS injections. Treatment was given intracardiac with thymosin β4 (200 ng in 10 ul collagen) or with 10 ul of collagen; intraperitoneally with thymosin β4 (150 μg in 300 μl PBS) or with […]; or by both intracardiac and intraperitoneal injections. Intraperitoneal injections were given every three days until mice were sacrificed. Doses were based on previous studies of thymosin β4 biodistribution. Hearts were removed, weighed and fixed for histologic sectioning. Additional mice were operated on in a similar fashion for studies 0.5, 1, 3, 6 and 11 days after ligation.\nEchocardiograms to assess systolic function were performed using M-mode and 2-dimensional measurements as described previously. The measurements represented the average of six selected cardiac cycles from at least two separate scans performed in random-blind fashion with papillary muscles used as a point of reference for consistency in level of scan. End diastole was defined as the maximal left ventricle (LV) diastolic dimension and end systole was defined as the peak of posterior wall motion. Single outliers in each group were omitted for statistical analysis. Fractional shortening (FS), a surrogate of systolic function, was calculated from LV dimensions as follows: FS=EDD−ESD/EDD×100%. Ejection fraction (EF) was calculated from two-dimensional images. EDD, end diastolic dimension; ESD, end systolic dimension.\nScar volume was calculated using six sections through the heart of each mouse using Openlab 3.03 software (Improvision) similar to previously described. Percent area of collagen deposition was measured on each section in blinded fashion and averaged for each mouse."}, "[3]": {"tested_on": "cardiac endothelial cells", "test": "collagen gel assay, transformation of cardiac endothelial cells to mesenchymal cells", "assay_type": "cell-based", "conditions": "Tβ4 at physiological concentrations", "procedure": "Synthetic Tβ4 and an antibody to Tβ4 was provided by RegeneRx Biopharmaceuticals, Inc. (3 Bethesda Metro Center, Suite 700, Bethesda, Md. 20814) and were tested in a collagen gel assay to determine their effects on the Transformation of cardiac endothelial cells to mesenchymal cells. It is well established that development of heart valves and other cardiac tissue are formed by epithelial-mesenchymal transformation and that defects in this process can cause serious cardiovascular malformation and injury during development and throughout life. […] Transformation of atrioventricular endocardium into invasive mesenchyme is an aspect of the formation and maintenance of normal cardiac tissue and in the formation of heart valves."}, "[4]": {"tested_on": "embryonic heart explants", "test": "embryonic heart explant collagen gel migration assay", "assay_type": "cell-based, mouse", "procedure": "To test the effects of secreted thymosin β4 on cardiac cell migration, an embryonic heart explant system designed to assay cell migration and transformation events on a three-dimensional collagen gel was utilized. In this assay, explants of adjacent embryonic myocardium and endocardium from valve-forming regions were placed on a collagen gel with the endocardium adjacent to the collagen.\nas §1\nTo determine if activation of ILK was necessary for the observed effects of thymosin β4, a well-described ILK inhibitor, wortmannin, was employed, which inhibits ILK's upstream kinase, phosphatidylinositol 3-kinase (PI3-kinase). Using myocardial cell migration and beating frequency as assays for thymosin β4 activity, embryonic heart explants were cultured as described above in the presence of thymosin β4 with or without wortmannin.\nOutflow tract was dissected from E11.5 wild type mouse embryos and placed on collagen matrices as previously described. After 10 hours of attachment explants were incubated in 30 ng/300 μl thymosin β4 in PBS, PBS alone or thymosin β4 and 100 nM wortmannin. Cultures were carried out for 3-9 days at 37° C. 5% CO2 and fixed in 4% paraformaldehyde in PBS for 10 min at RT. Cells were counted for quantification of migration and distance using at least three separate explants under each condition for endothelial migration and eight separate explants for myocardial migration.\nParaformaldehyde-fixed explants were permeabilized for 10 min at RT with Permeabilize solution (10 mM PIPES pH6.8; 50 mMNaC1; 0.5% Triton X-100; 300 mM Sucrose; 3 mM MgC12) and rinsed with PBS 2×5 min at RT. After a series of blocking and rinsing steps, detection antibodies were used and explants rinsed and incubated with Equilibration buffer (Anti-Fade kit) 10 min at room temperature. Explants were scooped to a glass microscope slide, covered, and examined by fluorescein microscopy. TUNEL assay was performed using ApopTag Plus Fluorescein In Situ Apoptosis detection kit (Intergen Company #S7111) as recommended."}, "[5]": {"conditions": "four weeks after infarction, versus control"}}}
{"substance": "thymosin β4", "values": [{"measurement": "migrational distance of neonatal cardiomyocytes", "setting": "[1]; compared to control, p<0.05", "value": "significantly increased"}, {"measurement": "survival in culture, rhythmically contracting myocytes visible", "setting": "[1]; control cultures survive approximately one to two weeks", "value": "up to 28 days"}, {"measurement": "rate of beating", "setting": "[1]; vs. 50 in control, p<0.02", "value": 95, "unit": "beats per minute"}, {"measurement": "cardiac dilation after infarction (EDD and ESD)", "setting": "[2]; EDD and ESD significantly higher in control group", "value": "decreased cardiac dilation"}, {"measurement": "mean ejection fraction", "setting": "[2]; four weeks after infarction, n=23, 95% confidence interval, control 28.2", "value": "57.7+/−3.2%"}, {"measurement": "mean left ventricle fractional shortening", "setting": "[2]; four weeks after infarction, n=23, 95% confidence intervals, control 23.2", "value": "37.2+/−1.8%"}, {"measurement": "improvement in cardiac fractional shortening", "setting": "[2]; [5]", "value": "greater than 60%"}, {"measurement": "improvement in ejection fraction", "setting": "[2]; [5]", "value": "> 100", "unit": "%"}, {"measurement": "degree of improvement, systemic (intraperitoneal) versus local intracardiac administration", "setting": "[2]; mouse, in vivo, ip", "value": "not statistically different"}, {"measurement": "scar volume", "setting": "[2]; six levels of sections through left ventricle, subset of mice, p<0.05", "value": "significant reduction"}, {"measurement": "left ventricle fractional shortening", "setting": "[2]; three days after infarction, intracardiac treatment, n=4, 95% confidence interval, control 28.8", "value": "39.2+/−2.34%"}, {"measurement": "ejection fraction", "setting": "[2]; three days after infarction, intracardiac treatment, control 44.7", "value": "64.2+/−6.69%"}, {"measurement": "size of scar (trichrome stain)", "setting": "[2]; three levels of section, all treated mice", "value": "reduced"}, {"measurement": "cardiomyocyte proliferation or death", "setting": "[2]; three, six, eleven or fourteen days after coronary ligation", "value": "did not detect significant cardiomyocyte proliferation or death"}, {"measurement": "number of c-kit, Sca-1 or Abcg2 positive cardiomyocytes", "setting": "[2]; treated versus untreated hearts", "value": "no detection of any differences"}, {"measurement": "cardiomyocyte cell death by TUNEL assay", "setting": "[2]; twenty-four hours after ligation", "value": "striking decrease in cell death"}, {"measurement": "transformation of endocardial cells to mesenchymal cells", "setting": "[3]", "value": "markedly enhances"}, {"measurement": "number of migrating endothelial cells", "setting": "[4]; E11.5 explants, compared to PBS, p<0.01", "value": "increased number of migrating endothelial cells"}, {"measurement": "cell death (TUNEL assay) in migrated cells", "setting": "[4]; compared to control cells", "value": "No significant difference"}, {"measurement": "proliferative rate (phosho-histone H3 immunostaining) in migrated cells", "setting": "[4]; compared to control cells", "value": "No significant difference"}, {"measurement": "migration of myocardial cells away from the explant", "setting": "[4]; thymosin β4 added to primary explants on collagen gel", "value": "a large number of spontaneously beating, cardiac muscle actin-positive cells had migrated away from the explant"}]}
